# Values joined by “and” are separate entries in the source; they are usually repeats but may differ in a detail not shown here. Equal entries are not always repeated.
# Assays:
# [1] = Solubility screening up to 5 mg/mL at RT in aqueous acid media (Examples 1 to 6); type: physicochemical; details: free base; for solubility at 24 h: thermodynamic from solid, read-out: Drug Solubility
# Method: Solubility of Compound A was conducted by adding a known quantity of drug to specific volume of aqueous media followed by 24 hour agitation at room temperature (RT).
# [2] = Solubility screening up to 2 mg/mL at RT in aqueous acid media (Examples 7 to 13); type: physicochemical; details: target up to 2 mg/mL; for solubility at 24 h: thermodynamic from solid, read-out: Drug Solubility
# [3] = Solubility in 20 mM acetic, citric and L-aspartic aqueous media as a function of pH (Example 14); type: physicochemical
# [4] = Aqueous solubility with glutamic acid and glucuronic acid (Example 15); type: physicochemical; details: aqueous buffer, thermodynamic from solid, adjusted pH 4.1, filtered supernatant
# From the text: Aqueous solubility of Compound A with glutamic acid and glucuronic acid were explored in Example 15.
# [5] = pHmax / Ksp determination with L-aspartic acid (Example 16); type: physicochemical; details: for solubility: L-aspartic acid solution, thermodynamic from solid, >110 hr stirring at RT, read-out: Drug Solubility; for solubility / pH max: L-aspartic acid; for pH max: pHmax = pKa + log (S0/√Ksp)
# Method: Compound A solubility was separately determined by controlling the mole ratio of L-aspartic acid relative to drug in Example 16. The concentrations of drug and counterion were measured in supernatant to calculate Ksp (Solubility product) (Table 5).
# cynomolgus monkeys = experiment: Injection site reactions after repeat IV bolus dosing (Example 17); type: in vivo, cynomolgus monkey; details: weekly IV bolus into antecubital vein then saline flush, 30 mM L-aspartic acid, 3.7% mannitol, pH approximately 3.0, non-stoichiometric hydrate form
# Method: In vivo studies were conducted in cynomolgus monkeys administered IV doses of Compound A in a vehicle of 30 mM L-aspartic acid, 3.7% mannitol in Sterile Water for Injection, pH approximately 3.0. For these studies, Compound A was used in a non-stoichiometric hydrate form according to Table 6.
# [6] = Stated physical properties: water solubility, hygroscopicity; type: physicochemical
# Stated bioavailability = details: oral
smiles,measurement,setting,value
"CCn1nc(C)cc1C(=O)Nc1nc2cc(C(N)=O)cc(OC)c2n1C/C=C/Cn1c(NC(=O)c2cc(C)nn2CC)nc2cc(C(N)=O)cc(OCCCN3CCOCC3)c21 [Compound A, (E)-1-(4-(5-Carbamoyl-2-(1-ethyl-3-methyl-1H-pyrazole-5-carboxamido)-7-(3-morpholinopropoxy)-1H-benzo[d]imidazol-1-yl)but-2-en-1-yl)-2-(1-ethyl-3-methyl-1H-pyrazole-5-carboxamido)-7-methoxy-1H-benzo[d]imidazole-5-carboxamide]",Drug Solubility,"[1]; 9.5 mM Lactic acid, solution pH 3.83, stirred 24 h at RT",3590 µg/mL
same,solubility at 24 h,"[1]; 9.5 mM lactic acid aqueous medium, pH 3.83, aqueous buffer, 9.5 mM Lactic acid, solution pH 3.83, stirred 24 h at RT",> 3500 µg/mL
same,Drug Solubility,"[1]; 50 mM Citric acid, solution pH 2.30, stirred 24 h at RT",1320 µg/mL
same,solubility at 24 h,"[1]; 50 mM citric acid aqueous medium, pH 2.3, aqueous buffer, 50 mM Citric acid, solution pH 2.30, stirred 24 h at RT",< 2000 µg/mL
same,Drug Solubility,"[1]; 72.8 mM Methane sulfonic acid, solution pH 1.27, stirred 24 h at RT",3850 µg/mL
same,solubility at 24 h,"[1]; 72.8 mM methane sulfonic acid aqueous medium, pH 1.27, aqueous buffer, 72.8 mM Methane sulfonic acid, solution pH 1.27, stirred 24 h at RT",> 3500 µg/mL
same,Drug Solubility,"[1]; 170 mM Acetic acid, solution pH 3.16, stirred 24 h at RT",4050 µg/mL
same,solubility at 24 h,"[1]; 170 mM acetic acid aqueous medium, pH 3.16, aqueous buffer, 170 mM Acetic acid, solution pH 3.16, stirred 24 h at RT",> 3500 µg/mL
same,Drug Solubility,"[2]; 10 mM Acetic acid, solution pH 3.33, stirred 24 h",1450 µg/mL
same,Drug Solubility,"[2]; 10 mM Methane sulfonic acid, solution pH 1.99, stirred 24 h",1780 µg/mL
same,solubility at 24 h,"[2]; 10 mM acetic acid aqueous medium, pH 3.33, aqueous buffer, 10 mM Acetic acid, solution pH 3.33, stirred 24 h",> 1000 µg/mL
same,solubility at 24 h,"[2]; 10 mM methane sulfonic acid aqueous medium, pH 1.99, aqueous buffer, 10 mM Methane sulfonic acid, solution pH 1.99, stirred 24 h",> 1000 µg/mL
same,Drug Solubility,"[2]; 25 mM Aspartic acid, solution pH 2.95, stirred 24 h",1800 µg/mL
same,Drug Solubility,"[2]; 25 mM Citric acid, solution pH 2.32, stirred 24 h",1810 µg/mL
same,Drug Solubility,"[2]; 25 mM Lactic acid, solution pH 2.57, stirred 24 h",1830 µg/mL
same,Drug Solubility,"[2]; 25 mM Tartaric acid, solution pH 2.33, stirred 24 h",800 µg/mL
same,solubility at 24 h,"[2]; 25 mM aspartic acid aqueous medium, pH 2.95, aqueous buffer, 25 mM Aspartic acid, solution pH 2.95, stirred 24 h",> 1000 µg/mL
same,solubility at 24 h,"[2]; 25 mM citric acid aqueous medium, pH 2.32, aqueous buffer, 25 mM Citric acid, solution pH 2.32, stirred 24 h",> 1000 µg/mL
same,solubility at 24 h,"[2]; 25 mM lactic acid aqueous medium, pH 2.57, aqueous buffer, 25 mM Lactic acid, solution pH 2.57, stirred 24 h",> 1000 µg/mL
same,solubility at 24 h,"[2]; 25 mM tartaric acid aqueous medium, pH 2.33, aqueous buffer, 25 mM Tartaric acid, solution pH 2.33, stirred 24 h",< 1000 µg/mL
same,solubility,"[3]; 20 mM L-aspartic acid aqueous media, 22 °C, aqueous buffer, thermodynamic from solid, 20 mM L-aspartic acid media, pH 6.14, 22 ± 1° C., Compound A in excess, read-out: Solubility",0.7 µg/mL
same,solubility,"[3]; 20 mM L-aspartic acid aqueous media, 22 °C, aqueous buffer, thermodynamic from solid, 20 mM L-aspartic acid media, pH 7.97, 22 ± 1° C., Compound A in excess, read-out: Solubility",0.5 µg/mL
same,solubility,"[3]; 20 mM L-aspartic acid aqueous media, 22 °C, aqueous buffer, thermodynamic from solid, 20 mM L-aspartic acid media, pH 8.87, 22 ± 1° C., Compound A in excess, read-out: Solubility",0.9 µg/mL
same,solubility,"[3]; 20 mM L-aspartic acid aqueous medium, aqueous buffer, Aspartic acid, at pH<3, read-out: Highest solubility",4000 µg/mL
same,solubility,"[3]; 20 mM acetic acid aqueous media, 22 °C, aqueous buffer, thermodynamic from solid, 20 mM acetic acid media, pH 6.42, 22 ± 1° C., Compound A in excess, read-out: Solubility",0.5 µg/mL
same,solubility,"[3]; 20 mM acetic acid aqueous media, 22 °C, aqueous buffer, thermodynamic from solid, 20 mM acetic acid media, pH 9.84, 22 ± 1° C., Compound A in excess, read-out: Solubility",0.5 µg/mL
same,solubility,"[3]; 20 mM acetic, citric or L-aspartic acid aqueous media, aqueous buffer, at pH 4.0, any of the counter ions (L-aspartic, acetic, citric acid), read-out: Solubility",≤ 500 µg/mL
same,solubility,"[3]; 20 mM citric acid aqueous media, 22 °C, aqueous buffer, thermodynamic from solid, 20 mM citric acid media, pH 6.92, 22 ± 1° C., Compound A in excess, read-out: Solubility",0.5 µg/mL
same,solubility,"[3]; 20 mM citric acid aqueous media, 22 °C, aqueous buffer, thermodynamic from solid, 20 mM citric acid media, pH 8.82, 22 ± 1° C., Compound A in excess, read-out: Solubility",0.5 µg/mL
same,solubility,"[3]; 22 °C, aqueous buffer, thermodynamic from solid, 20 mM L-aspartic acid media, pH 3.05, 22 ± 1° C., Compound A in excess, read-out: Solubility",5270 µg/mL
same,solubility,"[3]; 22 °C, aqueous buffer, thermodynamic from solid, 20 mM L-aspartic acid media, pH 3.23, 22 ± 1° C., Compound A in excess, read-out: Solubility",3970 µg/mL
same,solubility,"[3]; 22 °C, aqueous buffer, thermodynamic from solid, 20 mM L-aspartic acid media, pH 3.76, 22 ± 1° C., Compound A in excess, read-out: Solubility",472 µg/mL
same,solubility,"[3]; 22 °C, aqueous buffer, thermodynamic from solid, 20 mM L-aspartic acid media, pH 3.96, 22 ± 1° C., Compound A in excess, read-out: Solubility",227 µg/mL
same,solubility,"[3]; 22 °C, aqueous buffer, thermodynamic from solid, 20 mM L-aspartic acid media, pH 4.18, 22 ± 1° C., Compound A in excess, read-out: Solubility",68.7 µg/mL
same,solubility,"[3]; 22 °C, aqueous buffer, thermodynamic from solid, 20 mM L-aspartic acid media, pH 4.54, 22 ± 1° C., Compound A in excess, read-out: Solubility",16.7 µg/mL
same,solubility,"[3]; 22 °C, aqueous buffer, thermodynamic from solid, 20 mM L-aspartic acid media, pH 4.93, 22 ± 1° C., Compound A in excess, read-out: Solubility",5 µg/mL
same,solubility,"[3]; 22 °C, aqueous buffer, thermodynamic from solid, 20 mM acetic acid media, pH 3.26, 22 ± 1° C., Compound A in excess, read-out: Solubility",1760 µg/mL
same,solubility,"[3]; 22 °C, aqueous buffer, thermodynamic from solid, 20 mM acetic acid media, pH 3.58, 22 ± 1° C., Compound A in excess, read-out: Solubility",1090 µg/mL
same,solubility,"[3]; 22 °C, aqueous buffer, thermodynamic from solid, 20 mM acetic acid media, pH 3.71, 22 ± 1° C., Compound A in excess, read-out: Solubility",810 µg/mL
same,solubility,"[3]; 22 °C, aqueous buffer, thermodynamic from solid, 20 mM acetic acid media, pH 3.91, 22 ± 1° C., Compound A in excess, read-out: Solubility",396 µg/mL
same,solubility,"[3]; 22 °C, aqueous buffer, thermodynamic from solid, 20 mM acetic acid media, pH 4.09, 22 ± 1° C., Compound A in excess, read-out: Solubility",269 µg/mL
same,solubility,"[3]; 22 °C, aqueous buffer, thermodynamic from solid, 20 mM acetic acid media, pH 4.64, 22 ± 1° C., Compound A in excess, read-out: Solubility",24.1 µg/mL
same,solubility,"[3]; 22 °C, aqueous buffer, thermodynamic from solid, 20 mM acetic acid media, pH 4.85, 22 ± 1° C., Compound A in excess, read-out: Solubility",10.8 µg/mL
same,solubility,"[3]; 22 °C, aqueous buffer, thermodynamic from solid, 20 mM acetic acid media, pH 5.48, 22 ± 1° C., Compound A in excess, read-out: Solubility",2.9 µg/mL
same,solubility,"[3]; 22 °C, aqueous buffer, thermodynamic from solid, 20 mM citric acid media, pH 2.47, 22 ± 1° C., Compound A in excess, read-out: Solubility",456 µg/mL
same,solubility,"[3]; 22 °C, aqueous buffer, thermodynamic from solid, 20 mM citric acid media, pH 2.61, 22 ± 1° C., Compound A in excess, read-out: Solubility",195 µg/mL
same,solubility,"[3]; 22 °C, aqueous buffer, thermodynamic from solid, 20 mM citric acid media, pH 2.74, 22 ± 1° C., Compound A in excess, read-out: Solubility",81.6 µg/mL
same,solubility,"[3]; 22 °C, aqueous buffer, thermodynamic from solid, 20 mM citric acid media, pH 3.98, 22 ± 1° C., Compound A in excess, read-out: Solubility",5.4 µg/mL
same,solubility,"[3]; 22 °C, aqueous buffer, thermodynamic from solid, 20 mM citric acid media, pH 4.94, 22 ± 1° C., Compound A in excess, read-out: Solubility",4 µg/mL
same,solubility,"[3]; 22 °C, aqueous buffer, thermodynamic from solid, 20 mM citric acid media, pH 5.91, 22 ± 1° C., Compound A in excess, read-out: Solubility",1.3 µg/mL
same,solubility,"[3]; 22 °C, pH 2.9, aqueous buffer, thermodynamic from solid, 20 mM citric acid media, pH 2.90, 22 ± 1° C., Compound A in excess, read-out: Solubility",41.5 µg/mL
same,solubility,"[3]; 22 °C, pH 3.4, aqueous buffer, thermodynamic from solid, 20 mM citric acid media, pH 3.40, 22 ± 1° C., Compound A in excess, read-out: Solubility",8.3 µg/mL
same,solubility,"[4]; aqueous glucuronic acid (1 mol eq), Glucuronic acid (1 mol eq)",9000 µg/mL
same,solubility,"[4]; aqueous glutamic acid (1 mol eq), Glutamic acid (1 mol eq)",4500 µg/mL
same,solubility,[5]; counterion conc. 8.45 mM,4070 µg/mL and 4790 µM
same,solubility,[5]; counterion conc. 8.70 mM,3950 µg/mL and 4640 µM
same,solubility,[5]; counterion conc. 9.18 mM,3940 µg/mL and 4640 µM
same,solubility,[5]; counterion conc. 9.33 mM,4140 µg/mL and 4880 µM
same,pH max,[5]; counterion conc. 8.45 mM,3.57
same,pH max,[5]; counterion conc. 8.70 mM,3.57
same,pH max,[5]; counterion conc. 9.18 mM,3.56
same,pH max,[5]; counterion conc. 9.33 mM,3.54
same,pHmax,"[5]; in L-aspartic acid media, from the Ksp measurements in Table 5",3.5-3.6
same,pKa,"[5]; value used for the pHmax calculation, read-out: pKa of drug",7
same,Injection site reactions,cynomolgus monkeys,no Compound A-related injection site reactions were observed
same,solubility,[6],< 10 µg/mL
same,bioavailability,Stated bioavailability,poor oral bioavailability

# — patent publication US20220362253A1, “NOVEL PHARMACEUTICAL FORMULATION” (GLAXOSMITHKLINE INTELLECTUAL PROPERTY DEVELOPMENT LIMITED, priority 2018, published 2022)
